Reference: US11390604B2 (Hoffmann-La Roche Inc., priority 2019, dated 2022)

Each molecule was assayed on Acinetobacter baumannii ATCC 17961 (assay: Antimicrobial susceptibility testing: 90% growth inhibitory concentration (IC90) determination). Details: ATCC17961, Acinetobacter baumannii ATCC 17961, Iso-Sensitest broth, read-out: ATCC 17961 IC90.
Assay type: cell-based
Outline: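 Growth was followed kinetically by OD600 at 20-min intervals for 16 h at 35±2 °C, with ~5×10^5 CFU/ml in Iso-Sensitest broth. Compounds were tested as twofold dilutions (e.g. 50–0.097 μM final). The concentration giving 90% inhibition of log-phase growth was reported.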

Row | IC90 [nM] | SMILES
1 | 1170 | CCc1cc(NC(=O)c2ncc(-c3cn(CC#N)nc3C(F)(F)F)n2C)ccc1C(=O)N1CCN(C(=O)NCC2(O)CNC2)CC1 [Example 132, 4-[4-[[5-[1-(cyanomethyl)-3-(trifluoromethyl)pyrazol-4-yl]-1-methylimidazole-2-carbonyl]amino]-2-ethylbenzoyl]-N-[(3-hydroxyazetidin-3-yl)methyl]piperazine-1-carboxamide;formic acid]
2 | 775 | CCc1cc(NC(=O)c2ncc(-c3cn(CC#N)nc3C(F)(F)F)n2C)ccc1C(=O)N1CCN(C(=O)N2CCCC(N)C2)CC1 (stereo not drawn) [Example 133, N-[4-[4-(3-aminopiperidine-1-carbonyl)piperazine-1-carbonyl]-3-ethylphenyl]-5-[1-(cyanomethyl)-3-(trifluoromethyl)pyrazol-4-yl]-1-methylimidazole-2-carboxamide;formic acid]
3 | 860 | CCc1cc(NC(=O)c2ncc(-c3cn(CC#N)nc3C(F)(F)F)n2C)ccc1C(=O)N1CCN(C(=O)N2CC3(CC(N)C3)C2)CC1 [Example 134, N-[4-[4-(6-amino-2-azaspiro[3.3]heptane-2-carbonyl)piperazine-1-carbonyl]-3-ethylphenyl]-5-[1-(cyanomethyl)-3-(trifluoromethyl)pyrazol-4-yl]-1-methylimidazole-2-carboxamide;formic acid]
4 | 885 | CCc1cc(NC(=O)c2ncc(-c3cn(CC#N)nc3C(F)(F)F)n2C)ccc1C(=O)N1CCN(C(=O)N2CCNC(C)C2)CC1 (stereo not drawn) [Example 135, 5-[1-(cyanomethyl)-3-(trifluoromethyl)pyrazol-4-yl]-N-[3-ethyl-4-[4-(3-methylpiperazine-1-carbonyl)piperazine-1-carbonyl]phenyl]-1-methylimidazole-2-carboxamide;formic acid]
5 | 741 | CCc1cc(NC(=O)c2ncc(-c3cn(CC#N)nc3C(F)(F)F)n2C)ccc1C(=O)N1CCN(C(=O)N2CCC(C)(N)CC2)CC1 [Example 136, N-[4-[4-(4-amino-4-methylpiperidine-1-carbonyl)piperazine-1-carbonyl]-3-ethylphenyl]-5-[1-(cyanomethyl)-3-(trifluoromethyl)pyrazol-4-yl]-1-methylimidazole-2-carboxamide;formic acid]
6 | 888 | CCc1cc(NC(=O)c2ncc(-c3cn(CC#N)nc3C(F)(F)F)n2C)ccc1C(=O)N1CCN(C(=O)N2CCC(CN)C2)CC1 (stereo not drawn) [Example 138, N-[4-[4-[3-(aminomethyl)pyrrolidine-1-carbonyl]piperazine-1-carbonyl]-3-ethylphenyl]-5-[1-(cyanomethyl)-3-(trifluoromethyl)pyrazol-4-yl]-1-methylimidazole-2-carboxamide;formic acid]
7 | 1160 | CCc1cc(NC(=O)c2ncc(-c3cn(CC#N)nc3C(F)(F)F)n2C)ccc1C(=O)N1CCN(C(=O)N2CCCC2CN)CC1 (stereo not drawn) [Example 139, N-[4-[4-[2-(aminomethyl)pyrrolidine-1-carbonyl]piperazine-1-carbonyl]-3-ethylphenyl]-5-[1-(cyanomethyl)-3-(trifluoromethyl)pyrazol-4-yl]-1-methylimidazole-2-carboxamide;formic acid]
8 | 1050 | CCc1cc(NC(=O)c2ncc(-c3cn(CC#N)nc3C(F)(F)F)n2C)ccc1C(=O)N1CCN(C(=O)NC2C3CNCC32)CC1 (stereo not drawn) [Example 140, N-(3-azabicyclo[3.1.0]hexan-6-yl)-4-[4-[[5-[1-(cyanomethyl)-3-(trifluoromethyl)pyrazol-4-yl]-1-methylimidazole-2-carbonyl]amino]-2-ethylbenzoyl]piperazine-1-carboxamide;formic acid]
9 | 887 | CCc1cc(NC(=O)c2ncc(-c3cn(CC#N)nc3C(F)(F)F)n2C)ccc1C(=O)N1CCN(C(=O)N2CC3CC2CN3)CC1 (stereo not drawn) [Example 141, 5-[1-(cyanomethyl)-3-(trifluoromethyl)pyrazol-4-yl]-N-[4-[4-(2,5-diazabicyclo[2.2.1]heptane-2-carbonyl)piperazine-1-carbonyl]-3-ethylphenyl]-1-methylimidazole-2-carboxamide;formic acid]
